# Reference: US10238637B2, “Modulators of the adenosine A3 receptors” (PALOBIOFARMA, S.L., priority 2015, dated 2019)
# How the values were obtained:
# [1] = target: T1, adenosine A1 receptor (Homo sapiens, UniProt P30542); assay: Adenosine receptor subtypes competition radioligand binding assay, A1 receptor; settings: human recombinant membranes
# T1 construct: purchased Receptor Biology, Inc. (USA)
# T1 sequence (P30542 1-326): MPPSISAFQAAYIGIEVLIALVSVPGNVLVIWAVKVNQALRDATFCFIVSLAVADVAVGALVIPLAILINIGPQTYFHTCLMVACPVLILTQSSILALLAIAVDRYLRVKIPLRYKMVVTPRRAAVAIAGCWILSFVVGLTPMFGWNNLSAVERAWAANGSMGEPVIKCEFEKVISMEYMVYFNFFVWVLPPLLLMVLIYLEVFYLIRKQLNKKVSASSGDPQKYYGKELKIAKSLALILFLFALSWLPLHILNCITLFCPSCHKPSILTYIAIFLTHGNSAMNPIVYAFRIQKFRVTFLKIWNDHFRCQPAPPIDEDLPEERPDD
# From the text: (§1) Adenosine Receptor Subtypes Competition Radioligand Binding Assay
# (§2) Human recombinant membranes with adenosine receptors were purchased from Receptor Biology, Inc. (USA).
# [2] = target: T2, human A3 receptors (Homo sapiens, UniProt P0DMS8); assay: Adenosine receptor subtypes competition radioligand binding assay, A3 receptor ([3H]-NECA); settings: membranes from human A3 receptors transfected to CHO cells, 60 min at 25° C.
# T2 construct: purchased Receptor Biology, Inc. (USA); host or cells: CHO cells
# T2 sequence (P0DMS8 1-318): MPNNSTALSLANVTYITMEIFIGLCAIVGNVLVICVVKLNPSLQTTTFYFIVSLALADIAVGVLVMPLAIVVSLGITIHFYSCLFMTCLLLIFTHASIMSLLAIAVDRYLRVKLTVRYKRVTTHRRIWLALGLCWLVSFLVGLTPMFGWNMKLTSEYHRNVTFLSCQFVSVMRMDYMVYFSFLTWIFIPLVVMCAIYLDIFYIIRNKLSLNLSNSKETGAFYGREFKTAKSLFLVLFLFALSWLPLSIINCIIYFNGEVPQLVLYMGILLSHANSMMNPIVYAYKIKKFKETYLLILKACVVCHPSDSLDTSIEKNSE
# Experimental: as §1, §2
# Competitive assays were carried out by incubation of membranes from human A3 receptors transfected to CHO cells, [^3H]-NECA, buffer (20 mM HEPES (pH 7.4), 100 mM NaCl, 10 mM MgCl2, 2 units/ml adenosine deaminase), and unlabelled ligand in a total volume of 0.2 ml for 60 min at 25° C. R-PIA was used to determine nonspecific binding. It was filtered over Schleicher & Schuell GF/52 (presoaked with 0.5% polyethyleneimine) in a Brandel cell harvester. The unbound radioligand was removed with 3×250 μl of 20 mM HEPES (pH 7.4), 100 mM NaCl, 10 mM MgCl2.
# In Table 1, binding constants to adenosine A3 receptor obtained for some examples are shown.
# [3] = test system: experimental autoimmune uveitis; settings: experimental autoimmune uveitis model; cited from earlier work
# [4] = test system: rheumatoid arthritis; settings: RA patients, oral administration twice daily for 12 weeks; cited from earlier work
# [5] = test system: intestinal inflammation and spontaneous colitis; settings: mice; cited from earlier work
# [6] = test system: ischemia induced renal failure; settings: rats, ischemia induced with micro aneurysm clips after pretreatment; cited from earlier work
Compound,Ki [1],Ki [2],other results
"COc1ccc(-c2nc(NC(=O)c3cccc(C(=O)O)c3)sc2C#N)cc1 [Example 6, 3-(5-cyano-4-(4-methoxyphenyl)thiazol-2-ylcarbamoyl)benzoic Acid]",> 1000 nM,10 nM,–
"N#Cc1sc(NC(=O)c2ccc(C(=O)O)s2)nc1-c1cc(Cl)cs1 [Example 26, 5-((4-(4-chlorothiophen-2-yl)-5-cyanothiazol-2-yl)carbamoyl)thiophene-2-carboxylic Acid]",–,12 nM,–
"N#Cc1sc(NC(=O)c2ccc(C(=O)O)s2)nc1-c1ccc(F)cc1 [Example 13, 5-(5-cyano-4-(4-fluorophenyl)thiazol-2-ylcarbamoyl)thiophene-2-carboxylic Acid]",131 nM,66 nM,–
"N#Cc1sc(NC(=O)c2ccc(C(=O)O)s2)nc1-c1ccccc1F [Example 15, 5-(5-cyano-4-(2-fluorophenyl)thiazol-2-ylcarbamoyl)thiophene-2-carboxylic Acid]",> 500 nM,99 nM,–
"O=C(O)c1ccc(C(=O)Nc2nc(-c3ccccc3)c(Cl)s2)s1 [Example 38, 5-(5-chloro-4-phenylthiazole-2-ylcarbamoyl)thiophene-2-carboxylic Acid]",34 nM,21 nM,–
"N#Cc1sc(NC(=O)c2ccc(C(=O)O)s2)nc1-c1ccccc1 [Example 22, 5-(5-cyano-4-phenylthiazol-2-ylcarbamoyl)thiophene-2-carboxylic Acid]",87 nM,66 nM,–
"COc1ccc(-c2nc(NC(=O)c3ccc(C(=O)O)s3)sc2C#N)cc1 [Example 8, 5-(5-cyano-4-(4-methoxyphenyl)thiazol-2-ylcarbamoyl)thiophene-2-carboxylic Acid]",> 1000 nM,23 nM,–
"COc1ccc(-c2nc(NC(=O)c3cccc(C(=O)O)c3)sc2C#N)cn1 [Example 37, 3-(5-cyano-4-(6-methoxypyridin-3-yl)thiazol-2-ylcarbamoyl)benzoic Acid]",> 1000 nM,99 nM,–
"CNC(=O)[C@H]1O[C@@H](n2cnc3c(NCc4cccc(I)c4)ncnc32)[C@H](O)[C@@H]1O [IB-MECA, N6-(3-iodobenzyl)-adenosine-5′-N-methyluronamide]",–,–,"Effect on clinical and pathological manifestations of uveitis [3]: inhibited the clinical and pathological manifestations of uveitis; Effect on disease signs and symptoms [4]: improvement of disease signs and symptoms; Safety and tolerability [4]: safe, well tolerated; Effect on intestinal inflammation and spontaneous colitis [5]: ameliorate intestinal inflammation and spontaneous colitis; Effect of pretreatment on ischemia induced renal failure [6]: harmful"
"O=C(O)c1ccc(C(=O)Nc2nc(-c3ccccc3)c(F)s2)s1 [Example 41, 5-(5-fluoro-4-phenylthiazol-2-ylcarbamoyl)thiophene-2-carboxylic Acid]",64 nM,10 nM,–
"N#Cc1sc(NC(=O)c2ccc(C(=O)O)s2)nc1-c1cccs1 [Example 25, 5-((5-cyano-4-(thiophen-2-yl)thiazol-2-yl)carbamoyl)thiophene-2-carboxylic Acid]",–,36 nM,–
"COc1ccc(-c2nc(NC(=O)c3ccc(C(=O)O)s3)sc2Cl)cc1 [Example 44, 5-(5-chloro-4-(4-methoxyphenyl)thiazol-2-ylcarbamoyl)thiophene-2-carboxylic Acid]",> 1000 nM,24 nM,–
